Test results published in US20240262845A1, “PYRIDINIUM SALTS, METHODS OF MAKING, AND METHODS OF USE” (UNIVERSITY OF WYOMING, priority 2023, published 2024).
Counter-ions that a name gives are not always drawn.

What was measured:
[1] = tested on: Leuprolide; experiment: Photochemical labeling of leuprolide with pyridinium salt (General Procedure B, LC/MS); assay type: biochemical; conditions: 10 μM leuprolide, 100 μM pyridinium salt, 300 μM glutathione, 30 min
Procedure: (§1) General Procedure B: Photochemical Irradiation of Peptides and Proteins: To a 2 mL Pyrex LC/MS vial (Thermo model #03-391-39) were sequentially added solutions containing the desired biomolecule, glutathione (GSH), pyridinium salt, and ammonium acetate (NH4OAc). The resulting solution was diluted to a final volume of 500 μL and then sparged using nitrogen for a minimum of 30 minutes prior to irradiation. The actively sparging solution was then placed in an EvoluChem™ PhotoRedOx Box photoreactor that was equipped with a Kessil, PR160 427 nm LED Lamp and was then irradiated (100% lamp intensity) for the designated time at room temperature while maintaining active sparging. The resultant reaction mixture was then analyzed directly by LC/MS. Analysis of labeling outcomes using LC/MS was performed either by extracted ion chromatogram intensities (method A) or by integrating the area under the peaks associated with peptide content (method B). These values were totaled, and estimated percentages were assigned according to relative intensities of peaks or ion counts.
Labeling of Leuprolide with Pyridinium Salt 2a (Leuprolide-2a Conjugate). […] The reaction mixture was analyzed directly by LC/MS using method B and was estimated to have proceeded with 91% conversion, a >20:1 mono:di labeled ratio, and 4% of +1 label+glutathionylation. […]

[2] = molecular target: T1, thioredoxin (Escherichia coli, UniProt P0AA25); experiment: Photochemical labeling of thioredoxin with pyridinium salt (General Procedure B, LC/MS); assay type: biochemical; conditions: trypsin digest
T1 construct: purchased Sigma Aldrich; host or cells: E. coli
T1 sequence (P0AA25 whole entry): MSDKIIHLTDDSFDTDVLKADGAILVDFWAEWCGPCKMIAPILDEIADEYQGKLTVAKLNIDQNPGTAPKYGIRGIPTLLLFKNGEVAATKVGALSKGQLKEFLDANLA
Procedure: as §1
Labeling of Thioredoxin with Pyridinium Salt 2a (Thioredoxin-2a Conjugate). […] The reaction mixture was directly analyzed by LC/MS using method A and was estimated to have proceeded with 93% conversion and a 14.5:1 mono:di labeled ratio and 3% glutathionylation of all protein content. […]

COC(=O)N(C)[n+]1c(C)cc(-c2ccc3cc(OC)ccc3c2)cc1C [pyridinium salt 2a, 1-((methoxycarbonyl)(methyl)amino)-4-(6-methoxynapthalen-2-yl)-2,6-dimethylpyridin-1-ium tetrafluoroborate]
+1 label+glutathionylation [1]: 4% | Modified Trp [2]: Trp-31
